Test results: patent US12404295B2, “(Hetero)aryl-methyl-thio-beta-D-galactopyranoside derivatives” (Idorsia Pharmaceuticals Ltd, priority 2019, dated 2025)
Read-outs that look alike come from different tables or passages of the source.

Assays:
human Gal-1 (hGal-1) = human Gal-1 (hGal-1) (Homo sapiens (Human), UniProt P09382); assay: competitive binding assay: biotinylated hGal-1 binding to microplate-adsorbed asialofetuin (ASF); details: Table 15; read-out: IC50 (Galectin-1 inhibition)
Outline: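 Spectrophotometric competition readout: after compound and biotinylated hGal-1 (300-1000 ng/mL) sit 3 h at 4° C on adsorbed asialofetuin, streptavidin-peroxidase (1 h, 4° C) and ABTS reveal residual binding. Reported IC50 values are means of repeat runs.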

human Gal-3 (hGal-3) = human Gal-3 (hGal-3) (Homo sapiens (Human), UniProt P17931); assay: competitive binding assay: biotinylated hGal-3 binding to microplate-adsorbed asialofetuin (ASF)
Sequence of human Gal-3 (hGal-3) (P17931 whole entry): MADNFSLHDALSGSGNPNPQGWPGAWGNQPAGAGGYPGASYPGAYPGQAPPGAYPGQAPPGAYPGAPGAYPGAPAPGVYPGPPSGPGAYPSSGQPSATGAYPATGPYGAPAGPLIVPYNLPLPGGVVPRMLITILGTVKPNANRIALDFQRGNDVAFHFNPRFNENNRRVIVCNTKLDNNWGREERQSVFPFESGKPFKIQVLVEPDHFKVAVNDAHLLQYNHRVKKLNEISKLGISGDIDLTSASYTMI
Outline: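 3 h, 4 °C binding step; cold buffer wash; streptavidin-HRP 80 ng/mL, 1 h, 4 °C; ABTS colorimetric read-out. Compounds diluted serially in DMSO. IC50 reported as mean of repeat runs.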

[1] = Table 5, read-out: IC50 (Gal-3 inhibition)
[2] = Gal-3 inhibition, binding of biotinylated hGal-3 to ASF, mean values, read-out: IC50
[3] = Table 10, 2-OMe-Gal inhibitors, read-out: IC50 (Gal-3 inhibition)

Sequence of human Gal-1 (hGal-1) (P09382 whole entry): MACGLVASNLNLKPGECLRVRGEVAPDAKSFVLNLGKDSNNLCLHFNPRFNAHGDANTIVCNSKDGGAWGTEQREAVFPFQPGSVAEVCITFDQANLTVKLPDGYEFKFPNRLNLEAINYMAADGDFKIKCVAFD

Row | SMILES | IC50 (human Gal-1 (hGal-1)) [nM] | IC50 (human Gal-3 (hGal-3); [1]) [nM] | IC50 (human Gal-3 (hGal-3); [2]) [nM] | IC50 (human Gal-3 (hGal-3); [3]) [nM] | IC50 (human Gal-3 (hGal-3); Table 9, 2-OMe-Gal inhibitors, read-out: IC50 (Gal-3 inhibition)) [nM]
1 | Cc1ccccc1[C@@H](S[C@@H]1O[C@H](CO)[C@H](O)[C@H](n2cc(-c3cc(F)c(F)c(F)c3)nn2)[C@H]1O)C1(O)CCCC1 [Example 2.38.102R., (2S,3R,4S,5R,6R)-2-(((R)-(1-Hydroxycyclopentyl)(o-tolyl)methyl)thio)-6-(hydroxymethyl)-4-(4-(3,4,5-trifluorophenyl)-1H-1,2,3-triazol-1-yl)tetrahydro-2H-pyran-3,5-diol] | 1800 | 110 |  |  | 
2 | Cc1ccccc1[C@H](S[C@@H]1O[C@H](CO)[C@H](O)[C@H](n2cc(-c3cc(F)c(F)c(F)c3)nn2)[C@H]1O)C1(O)CCCC1 [Example 2.38.102S., (2S,3R,4S,5R,6R)-2-(((S)-(1-Hydroxycyclopentyl)(o-tolyl)methyl)thio)-6-(hydroxymethyl)-4-(4-(3,4,5-trifluorophenyl)-1H-1,2,3-triazol-1-yl)tetrahydro-2H-pyran-3,5-diol] | 17000 | 2750 |  |  | 
3 | OC[C@H]1O[C@@H](S[C@@H](c2ncccc2C(F)(F)F)C2(O)CCCC2)[C@H](O)[C@@H](n2cc(-c3cc(F)c(F)c(F)c3)nn2)[C@H]1O [Example 2.38.125S., (2S,3R,4S,5R,6R)-2-(((S)-(1-Hydroxycyclopentyl)(3-(trifluoromethyl)pyridin-2-yl)methyl)thio)-6-(hydroxymethyl)-4-(4-(3,4,5-trifluorophenyl)-1H-1,2,3-triazol-1-yl)tetrahydro-2H-pyran-3,5-diol] | 15100 |  | 5620 |  | 
4 | Cc1ccccc1[C@H](S[C@@H]1O[C@H](CO)[C@H](O)[C@H](n2cc(-c3cc(F)c(F)c(F)c3)nn2)[C@H]1O)C1(O)CCCCC1 [Example 2.39.102S., (2S,3R,4S,5R,6R)-2-(((S)-(1-Hydroxycyclohexyl)(o-tolyl)methyl)thio)-6-(hydroxymethyl)-4-(4-(3,4,5-trifluorophenyl)-1H-1,2,3-triazol-1-yl)tetrahydro-2H-pyran-3,5-diol] | 24000 | 4540 |  |  | 
5 | Cc1nc(C)c([C@H](S[C@@H]2O[C@H](CO)[C@H](O)[C@H](n3cc(-c4cc(F)c(F)c(F)c4)nn3)[C@H]2O)C2(O)CCCCC2)nc1C [Example 2.39.119S., (2S,3R,4S,5R,6R)-2-(((S)-(1-Hydroxycyclohexyl) (3,5,6-trimethylpyrazin-2-yl)methyl)thio)-6-(hydroxymethyl)-4-(4-(3,4,5-trifluorophenyl)-1H-1,2,3-triazol-1-yl)tetrahydro-2H-pyran-3,5-diol] | 18900 | 3960 |  |  | 
6 | CO[C@@H]1[C@@H](n2cc(-c3cc(F)c(F)c(F)c3)nn2)[C@@H](O)[C@@H](CO)O[C@H]1S[C@@H](c1nocc1C)C1(O)CCCCC1 [Example 2.39.120S.I., (2R,3R,4S,5R,6S)-6-(((S)-(1-Hydroxycyclohexyl)(4-methylisoxazol-3-yl)methyl)thio)-2-(hydroxymethyl)-5-methoxy-4-(4-(3,4,5-trifluorophenyl)-1H-1,2,3-triazol-1-yl)tetrahydro-2H-pyran-3-ol] | 27300 |  |  | 12500 | 

Compounds with a lower IC50 (human Gal-1 (hGal-1)), results first:

Row | IC50 (human Gal-1 (hGal-1)) [nM] | IC50 (human Gal-3 (hGal-3); [1]) [nM] | IC50 (human Gal-3 (hGal-3); [2]) [nM] | IC50 (human Gal-3 (hGal-3); [3]) [nM] | IC50 (human Gal-3 (hGal-3); Table 9, 2-OMe-Gal inhibitors, read-out: IC50 (Gal-3 inhibition)) [nM] | SMILES
7 | 760 |  | 130 |  |  | OC[C@H]1O[C@@H](SC(c2ncccc2C(F)(F)F)C2(O)CCCC2)[C@H](O)[C@@H](n2cc(-c3cc(F)c(F)c(F)c3)nn2)[C@H]1O (stereo partly drawn) [Example 2.38.125.]
8 | 480 |  | 80 |  |  | OC[C@H]1O[C@@H](S[C@H](c2ncccc2C(F)(F)F)C2(O)CCCC2)[C@H](O)[C@@H](n2cc(-c3cc(F)c(F)c(F)c3)nn2)[C@H]1O [Example 2.38.125R., (2S,3R,4S,5R,6R)-2-(((R)-(1-Hydroxycyclopentyl)(3-(trifluoromethyl)pyridin-2-yl)methyl)thio)-6-(hydroxymethyl)-4-(4-(3,4,5-trifluorophenyl)-1H-1,2,3-triazol-1-yl)tetrahydro-2H-pyran-3,5-diol]
9 | 1600 | 90 |  |  |  | Cc1ccccc1C(S[C@@H]1O[C@H](CO)[C@H](O)[C@H](n2cc(-c3cc(F)c(F)c(F)c3)nn2)[C@H]1O)C1(O)CCCCC1 (stereo partly drawn) [Example 2.39.102., (2S,3R,4S,5R,6R)-2-(((1-Hydroxycyclohexyl)(o-tolyl)methyl)thio)-6-(hydroxymethyl)-4-(4-(3,4,5-trifluorophenyl)-1H-1,2,3-triazol-1-yl)tetrahydro-2H-pyran-3,5-diol]
10 | 1140 | 90 |  |  |  | Cc1ccccc1[C@@H](S[C@@H]1O[C@H](CO)[C@H](O)[C@H](n2cc(-c3cc(F)c(F)c(F)c3)nn2)[C@H]1O)C1(O)CCCCC1 [Example 2.39.102R., (2S,3R,4S,5R,6R)-2-(((R)-(1-Hydroxycyclohexyl)(o-tolyl)methyl)thio)-6-(hydroxymethyl)-4-(4-(3,4,5-trifluorophenyl)-1H-1,2,3-triazol-1-yl)tetrahydro-2H-pyran-3,5-diol]
11 | 730 | 70 |  |  |  | Cc1nc(C)c([C@@H](S[C@@H]2O[C@H](CO)[C@H](O)[C@H](n3cc(-c4cc(F)c(F)c(F)c4)nn3)[C@H]2O)C2(O)CCCCC2)nc1C [Example 2.39.119R., (2S,3R,4S,5R,6R)-2-(((R)-(1-Hydroxycyclohexyl) (3,5,6-trimethylpyrazin-2-yl)methyl)thio)-6-(hydroxymethyl)-4-(4-(3,4,5-trifluorophenyl)-1H-1,2,3-triazol-1-yl)tetrahydro-2H-pyran-3,5-diol]
12 | 610 | 200 |  |  |  | Cc1conc1[C@@H](S[C@@H]1O[C@H](CO)[C@H](O)[C@H](n2cc(-c3cc(F)c(F)c(F)c3)nn2)[C@H]1O)C1(O)CCCCC1 [Example 2.39.120R., (2S,3R,4S,5R,6R)-2-(((R)-(1-Hydroxycyclohexyl)(4-methylisoxazol-3-yl)methyl)thio)-6-(hydroxymethyl)-4-(4-(3,4,5-trifluorophenyl)-1H-1,2,3-triazol-1-yl)tetrahydro-2H-pyran-3,5-diol]
13 | 560 |  |  | 250 |  | CO[C@@H]1[C@@H](n2cc(-c3cc(F)c(F)c(F)c3)nn2)[C@@H](O)[C@@H](CO)O[C@H]1S[C@H](c1nocc1C)C1(O)CCCCC1 [Example 2.39.120R.I., (2R,3R,4S,5R,6S)-6-(((R)-(1-Hydroxycyclohexyl)(4-methylisoxazol-3-yl)methyl)thio)-2-(hydroxymethyl)-5-methoxy-4-(4-(3,4,5-trifluorophenyl)-1H-1,2,3-triazol-1-yl)tetrahydro-2H-pyran-3-ol]
14 | 280 | 100 |  |  |  | OC[C@H]1O[C@@H](S[C@H](c2ncccc2C(F)(F)F)C2(O)CCCCC2)[C@H](O)[C@@H](n2cc(-c3cc(F)c(F)c(F)c3)nn2)[C@H]1O [Example 2.39.125R., (2S,3R,4S,5R,6R)-2-(((R)-(1-Hydroxycyclohexyl)(3-(trifluoromethyl)pyridin-2-yl)methyl)thio)-6-(hydroxymethyl)-4-(4-(3,4,5-trifluorophenyl)-1H-1,2,3-triazol-1-yl)tetrahydro-2H-pyran-3,5-diol]
15 | 460 |  |  |  | 90 | CO[C@@H]1[C@@H](n2cc(-c3cc(F)c(F)c(F)c3)nn2)[C@@H](O)[C@@H](CO)O[C@H]1S[C@H](c1ncccc1C(F)(F)F)C1(O)CCCCC1 [Example 2.39.125R.I., (2R,3R,4S,5R,6S)-6-(((R)-(1-Hydroxycyclohexyl)(3-(trifluoromethyl)pyridin-2-yl)methyl)thio)-2-(hydroxymethyl)-5-methoxy-4-(4-(3,4,5-trifluorophenyl)-1H-1,2,3-triazol-1-yl)tetrahydro-2H-pyran-3-ol]
